target: T1, TRPV4 channel receptors (Bos taurus, UniProt A0A8F4X677); experiment: Ca2+ influx by Fura-2 fluorescence on a FlexStation in bovine articular chondrocytes; type: cell-based; conditions: Fura-2, FlexStation
T1 construct: obtained using this method in bovine articular chondrocytes; endogenous in cells; host or cells: bovine articular chondrocytes (primary)
Source text: Ca^2+influx mediated through TRPV4 channel receptors can be measured using articular chondrocytes from such species as, but not limited to, human, rat, canine, rabbit, monkey, and bovine, using standard techniques in the art such as, but not limited to, Fura-2 (Invitrogen/Molecular Probes, Eugene, Oreg.) fluorescence using a FlexStation (manufactured by Molecular Devices, Sunnyvale, Calif.). Table 1 lists biological data for several representative compounds obtained using this method in bovine articular chondrocytes.

T1 sequence (A0A8F4X677 1-871): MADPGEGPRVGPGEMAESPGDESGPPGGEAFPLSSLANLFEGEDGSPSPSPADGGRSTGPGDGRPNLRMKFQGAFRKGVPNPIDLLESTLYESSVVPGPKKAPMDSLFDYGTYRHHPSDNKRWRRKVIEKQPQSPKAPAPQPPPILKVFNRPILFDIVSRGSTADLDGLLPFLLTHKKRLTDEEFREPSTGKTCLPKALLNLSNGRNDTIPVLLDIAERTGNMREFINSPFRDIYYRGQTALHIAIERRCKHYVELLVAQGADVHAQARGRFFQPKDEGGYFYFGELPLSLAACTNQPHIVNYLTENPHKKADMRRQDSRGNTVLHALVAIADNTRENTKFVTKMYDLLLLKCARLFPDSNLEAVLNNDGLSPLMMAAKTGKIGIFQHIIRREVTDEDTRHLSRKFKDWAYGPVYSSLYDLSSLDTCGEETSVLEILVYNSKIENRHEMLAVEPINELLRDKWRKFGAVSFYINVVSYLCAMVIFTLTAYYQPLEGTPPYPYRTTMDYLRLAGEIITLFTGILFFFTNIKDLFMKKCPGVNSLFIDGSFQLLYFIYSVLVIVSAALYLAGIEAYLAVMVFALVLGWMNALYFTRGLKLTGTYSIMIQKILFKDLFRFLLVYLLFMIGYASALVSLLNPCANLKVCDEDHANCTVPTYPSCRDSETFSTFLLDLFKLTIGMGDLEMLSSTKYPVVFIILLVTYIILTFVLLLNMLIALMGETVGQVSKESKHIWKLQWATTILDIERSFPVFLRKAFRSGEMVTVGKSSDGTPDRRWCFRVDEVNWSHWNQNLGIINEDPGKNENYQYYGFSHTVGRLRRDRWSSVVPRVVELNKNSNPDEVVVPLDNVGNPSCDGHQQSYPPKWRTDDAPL

Row | EC50 [µM] | SMILES
1 | 0.14 to 1 | CC(C)C[C@H](NC(=O)c1cc2ccccc2s1)C(=O)NCCCN(C)S(=O)(=O)c1ccc(F)cc1Cl [Example 6, N-{(1S)-1-[({3-[[(2-chloro-4-fluorophenyl)sulfonyl](methyl)amino]propyl}amino)carbonyl]-3-methylbutyl}-1-benzothiophene-2-carboxamide]
2 | 10 to 30 | Cc1c(C(=O)N[C@@H](CC(C)C)C(=O)NCCCN(C)S(=O)(=O)c2ccccc2C#N)oc2cccnc12 [Example 73, N-{(1S)-1-[({3-[[(2-cyanophenyl)sulfonyl](methyl)amino]propyl}amino)carbonyl]-3-methylbutyl}-3-methylfuro[3,2-b]pyridine-2-carboxamide]
3 | 1.01 to 10 | CC(C)C[C@H](NC(=O)c1cc2ccccc2s1)C(=O)NCCCN(C)S(=O)(=O)c1sccc1C#N [Example 13, N-{(1S)-1-[({3-[[(3-cyano-2-thienyl)sulfonyl](methyl)amino]propyl}amino)carbonyl]-3-methylbutyl}-1-benzothiophene-2-carboxamide]

target: T2, TRPV4 channel receptor (Homo sapiens, UniProt Q9HBA0); experiment: FLIPR assay using TRPV4 expressing HEK cells; type: cell-based; conditions: FLIPR method; pEC50 = −log10(EC50 μM)
T2 construct: expressed in transfected cells; host or cells: HEK cells
T2 sequence (Q9HBA0 whole entry): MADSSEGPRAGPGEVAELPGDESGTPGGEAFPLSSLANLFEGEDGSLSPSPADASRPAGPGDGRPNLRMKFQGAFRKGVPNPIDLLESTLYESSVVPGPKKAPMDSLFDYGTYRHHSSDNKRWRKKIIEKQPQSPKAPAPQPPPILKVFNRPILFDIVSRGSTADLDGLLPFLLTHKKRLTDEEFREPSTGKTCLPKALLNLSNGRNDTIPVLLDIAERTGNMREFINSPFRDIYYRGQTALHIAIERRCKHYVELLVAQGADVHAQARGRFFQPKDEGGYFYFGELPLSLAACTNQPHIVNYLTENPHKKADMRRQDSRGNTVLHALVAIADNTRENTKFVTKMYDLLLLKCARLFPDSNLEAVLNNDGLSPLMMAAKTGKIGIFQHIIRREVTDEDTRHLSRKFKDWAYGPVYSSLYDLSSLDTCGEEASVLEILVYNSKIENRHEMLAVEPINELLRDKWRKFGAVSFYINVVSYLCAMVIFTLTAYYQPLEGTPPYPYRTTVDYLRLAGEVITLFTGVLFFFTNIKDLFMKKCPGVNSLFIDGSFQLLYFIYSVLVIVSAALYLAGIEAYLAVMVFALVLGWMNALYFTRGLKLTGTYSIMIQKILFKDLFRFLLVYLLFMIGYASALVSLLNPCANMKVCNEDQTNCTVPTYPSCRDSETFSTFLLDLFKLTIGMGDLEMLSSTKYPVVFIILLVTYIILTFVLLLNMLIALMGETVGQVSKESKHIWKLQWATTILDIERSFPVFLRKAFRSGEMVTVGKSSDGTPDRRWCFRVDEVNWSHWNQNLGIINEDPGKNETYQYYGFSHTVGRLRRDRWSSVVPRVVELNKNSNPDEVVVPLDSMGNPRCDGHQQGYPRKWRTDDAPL
Source text: Other techniques used to measure TRPV4 channel receptor activation in chondrocytes include, but are not limited to: FLIPR assay, measuring a compound's capability to reduce the amount of ADAMTSs produced and/or released in response to a catabolic stimulus by a cell comprising a TRPV4 channel receptor; measuring a compound's capability to reduce the amount of MMPs produced and/or released in response to a catabolic stimulus by a cell comprising a TRPV4 channel receptor; measuring a compound's capability to effect the amount of nitric oxide (NO) produced in response to a catabolic stimulus by a cell comprising a TRPV4 channel receptor; and measuring a compound's capability to attenuate the inhibition of matrix synthesis in response to a catabolic stimulus by a cell comprising a TRPV4 channel receptor .
All exemplary compounds of the present invention were assessed using at least one of the biological assays presented above. Compounds presented in the Examples had pEC50 values between about 4.5 to about 7.0 as measured by Flex Station in using bovine articular cartilage and EC50 values of about 0.1 μM to about 30 μM as measured by FLIPR assay using TRPV4 expressing HEK cells.

Row | EC50 [µM] | SMILES
4 | 10 to 20 | CC(C)C[C@H](NC(=O)c1cn2nc(Cl)ccc2n1)C(=O)NCCCN(C)S(=O)(=O)c1ccccc1C#N [Example 71, 6-chloro-N-{(1S)-1-[({3-[[(2-cyanophenyl)sulfonyl](methyl)amino]propyl}amino)carbonyl]-3-methylbutyl}imidazo[1,2-b]pyridazine-2-carboxamide]
5 | 1 to 7.94 | CC(C)C[C@H](NC(=O)c1cc2ccccc2s1)C(=O)NCCCN(C)S(=O)(=O)c1c(Cl)cc(Cl)cc1Cl [Example 17, N-((1S)-3-methyl-1-{[(3-{methyl[(2,4,6-trichlorophenyl)sulfonyl]amino}propyl)amino]carbonyl}butyl)-1-benzothiophene-2-carboxamide]
6 | 0.1 to 0.794 | CC(C)C[C@H](NC(=O)c1cc2ccccc2s1)C(=O)NCCCN(C)S(=O)(=O)c1ccc(F)cc1Cl [Example 6, N-{(1S)-1-[({3-[[(2-chloro-4-fluorophenyl)sulfonyl](methyl)amino]propyl}amino)carbonyl]-3-methylbutyl}-1-benzothiophene-2-carboxamide]

Reference: US20070259965A1, “Acyclic 1,3-Diamine And Uses Therefor” (SmithKline Beecham Corporation, priority 2004, published 2007)
